Target: T1, PFAS (Homo sapiens, UniProt O15067)
T1 construct: endogenous in cells; host or cells: HL-60 (ATCC CCL-240)
T1 sequence (O15067 1-1338): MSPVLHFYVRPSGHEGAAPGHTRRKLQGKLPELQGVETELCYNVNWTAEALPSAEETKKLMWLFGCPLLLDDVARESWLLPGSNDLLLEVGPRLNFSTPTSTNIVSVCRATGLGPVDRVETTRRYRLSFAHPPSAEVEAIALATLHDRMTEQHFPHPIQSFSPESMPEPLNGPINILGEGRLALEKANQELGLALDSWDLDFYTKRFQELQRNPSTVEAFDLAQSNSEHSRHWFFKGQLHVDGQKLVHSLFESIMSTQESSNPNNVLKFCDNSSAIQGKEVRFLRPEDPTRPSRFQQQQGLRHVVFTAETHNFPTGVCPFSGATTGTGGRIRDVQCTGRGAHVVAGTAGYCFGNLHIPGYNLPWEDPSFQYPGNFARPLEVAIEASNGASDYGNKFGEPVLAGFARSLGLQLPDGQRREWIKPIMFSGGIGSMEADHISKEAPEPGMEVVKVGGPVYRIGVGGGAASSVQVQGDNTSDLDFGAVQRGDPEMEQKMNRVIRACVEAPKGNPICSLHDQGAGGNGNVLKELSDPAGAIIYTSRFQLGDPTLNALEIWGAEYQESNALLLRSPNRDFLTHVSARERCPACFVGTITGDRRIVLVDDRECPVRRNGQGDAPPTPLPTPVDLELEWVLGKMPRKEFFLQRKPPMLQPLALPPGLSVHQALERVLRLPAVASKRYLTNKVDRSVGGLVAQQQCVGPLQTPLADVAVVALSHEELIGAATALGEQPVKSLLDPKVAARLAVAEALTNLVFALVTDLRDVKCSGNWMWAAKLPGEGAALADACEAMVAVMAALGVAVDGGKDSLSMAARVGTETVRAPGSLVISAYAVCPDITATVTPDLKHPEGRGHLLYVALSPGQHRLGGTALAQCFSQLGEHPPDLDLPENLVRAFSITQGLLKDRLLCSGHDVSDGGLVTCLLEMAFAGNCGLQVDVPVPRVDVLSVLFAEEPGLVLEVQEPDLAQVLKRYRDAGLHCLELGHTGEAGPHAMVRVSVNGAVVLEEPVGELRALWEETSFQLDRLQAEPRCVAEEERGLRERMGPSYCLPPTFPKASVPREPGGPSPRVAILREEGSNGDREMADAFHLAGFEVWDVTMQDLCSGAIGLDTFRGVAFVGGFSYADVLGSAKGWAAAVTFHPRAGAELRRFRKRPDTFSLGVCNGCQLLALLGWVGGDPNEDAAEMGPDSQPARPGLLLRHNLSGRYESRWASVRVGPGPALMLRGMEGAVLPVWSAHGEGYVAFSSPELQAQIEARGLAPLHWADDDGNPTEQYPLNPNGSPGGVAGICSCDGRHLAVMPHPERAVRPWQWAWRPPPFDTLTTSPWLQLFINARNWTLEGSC
Experiment: TPP-CCR in living HL-60 cells
Format: cell-based

[1] = living HL-60 cells, […] °C, TMT-MS

Cc1cnc(Nc2ccc(F)cc2Cl)nc1-c1c[nH]c(C(=O)N[C@H](CO)c2cccc(Cl)c2)c1 [ERK 11e]
Hill slope (TPP-CCR, living cells, PFAS): 0.30
EC50 [1]: 1170 nM
Hill slope (PFAS) [1]: 0.30
